Source: ChEMBL document CHEMBL3797176, “Identification of selenocompounds with promising properties to reverse cancer multidrug resistance” (Bioorg Med Chem Lett, 2016)

Tests used:
L5178Y [1] = test: Induction of apoptosis in mouse L5178Y cells assessed as early apoptosis at 2 uM after 1 hr by Annexin V-FITC/propidium iodide staining-based flow cytometry (reference value: 3.96%); type: functional
L5178Y [2] = test: Induction of apoptosis in mouse L5178Y cells assessed as cell death at 2 uM after 1 hr by Annexin V-FITC/propidium iodide staining-based flow cytometry (reference value: 0.191%); type: functional
L5178Y [3] = test: Cytotoxicity against mouse L5178Y cells assessed as growth inhibition after 72 hrs by MTT assay; type: functional, cell-based
[4] = biological target: T1, ATP-dependent translocase ABCB1 (Homo sapiens, UniProt P08183); test: Inhibition of human MDR1 transfected in multi-drug resistant mouse L5178Y cells assessed as fluorescence activity ratio at 2 uM incubated for 10 mins by rhodamine 123 accumulation assay; type: cell-based
L5178Y [5] = test: Induction of apoptosis in mouse L5178Y cells assessed as late apoptosis/necrosis at 2 uM after 1 hr by Annexin V-FITC/propidium iodide staining-based flow cytometry (reference value: 0.859%); type: functional
[6] = biological target: T1, ATP-dependent translocase ABCB1; test: Inhibition of human MDR1 transfected in multi-drug resistant mouse L5178Y cells assessed as fluorescence activity ratio quotient at 20 uM incubated for 10 mins by rhodamine 123 accumulation assay relative to verapamil; type: cell-based; design: scale not given: the % may be the effect or the level left
L5178Y [7] = test: Cytotoxicity against multi-drug resistant mouse L5178Y cells assessed as growth inhibition after 72 hrs by MTT assay; type: functional, cell-based
[8] = biological target: T1, ATP-dependent translocase ABCB1; test: Inhibition of human MDR1 transfected in multi-drug resistant mouse L5178Y cells assessed as fluorescence activity ratio quotient at 2 uM incubated for 10 mins by rhodamine 123 accumulation assay relative to verapamil; type: cell-based; design: scale not given: the % may be the effect or the level left
L5178Y [9] = test: Induction of apoptosis in multi-drug resistant mouse L5178Y cells transfected with human MDR1 assessed as cell death at 2 uM after 1 hr by Annexin V-FITC/propidium iodide staining-based flow cytometry (reference value: 0.09%); type: functional
L5178Y [10] = test: Induction of apoptosis in multi-drug resistant mouse L5178Y cells transfected with human MDR1 assessed as late apoptosis/necrosis at 2 uM after 1 hr by Annexin V-FITC/propidium iodide staining-based flow cytometry (reference value: 2.28%); type: functional
L5178Y [11] = test: Induction of apoptosis in multi-drug resistant mouse L5178Y cells transfected with human MDR1 assessed as early apoptosis at 2 uM after 1 hr by Annexin V-FITC/propidium iodide staining-based flow cytometry (reference value: 6.46%); type: functional
[12] = biological target: T1, ATP-dependent translocase ABCB1; test: Inhibition of human MDR1 transfected in multi-drug resistant mouse L5178Y cells assessed as fluorescence activity ratio at 20 uM incubated for 10 mins by rhodamine 123 accumulation assay; type: cell-based
[13] = biological target: T1, ATP-dependent translocase ABCB1; test: Inhibition of human MDR1 transfected in multi-drug resistant mouse L5178Y cells at 2 uM incubated for 10 mins by rhodamine 123 accumulation assay relative to verapamil; type: cell-based
[14] = biological target: T1, ATP-dependent translocase ABCB1; test: Inhibition of human MDR1 transfected in multi-drug resistant mouse L5178Y cells at 20 uM incubated for 10 mins by rhodamine 123 accumulation assay relative to verapamil; type: cell-based
L5178Y [15] = test: Ratio of induction of apoptosis in mouse L5178Y cells to multi-drug resistant mouse L5178Y cells transfected with human MDR1; type: functional
L5178Y [16] = test: Induction of apoptosis in multi-drug resistant mouse L5178Y cells transfected with human MDR1 assessed as cell death at 20 uM after 1 hr by Annexin V-FITC/propidium iodide staining-based flow cytometry (reference value: 0.09%); type: functional
L5178Y [17] = test: Induction of apoptosis in mouse L5178Y cells assessed as early apoptosis at 20 uM after 1 hr by Annexin V-FITC/propidium iodide staining-based flow cytometry (reference value: 3.96%); type: functional
L5178Y [18] = test: Induction of apoptosis in multi-drug resistant mouse L5178Y cells transfected with human MDR1 assessed as early apoptosis at 20 uM after 1 hr by Annexin V-FITC/propidium iodide staining-based flow cytometry (reference value: 6.46%); type: functional
L5178Y [19] = test: Induction of apoptosis in mouse L5178Y cells assessed as late apoptosis/necrosis at 20 uM after 1 hr by Annexin V-FITC/propidium iodide staining-based flow cytometry (reference value: 0.859%); type: functional
L5178Y [20] = test: Induction of apoptosis in mouse L5178Y cells assessed as cell death at 20 uM after 1 hr by Annexin V-FITC/propidium iodide staining-based flow cytometry (reference value: 0.191%); type: functional
L5178Y [21] = test: Induction of apoptosis in multi-drug resistant mouse L5178Y cells transfected with human MDR1 assessed as late apoptosis/necrosis at 20 uM after 1 hr by Annexin V-FITC/propidium iodide staining-based flow cytometry (reference value: 2.28%); type: functional

T1 sequence (P08183 whole entry): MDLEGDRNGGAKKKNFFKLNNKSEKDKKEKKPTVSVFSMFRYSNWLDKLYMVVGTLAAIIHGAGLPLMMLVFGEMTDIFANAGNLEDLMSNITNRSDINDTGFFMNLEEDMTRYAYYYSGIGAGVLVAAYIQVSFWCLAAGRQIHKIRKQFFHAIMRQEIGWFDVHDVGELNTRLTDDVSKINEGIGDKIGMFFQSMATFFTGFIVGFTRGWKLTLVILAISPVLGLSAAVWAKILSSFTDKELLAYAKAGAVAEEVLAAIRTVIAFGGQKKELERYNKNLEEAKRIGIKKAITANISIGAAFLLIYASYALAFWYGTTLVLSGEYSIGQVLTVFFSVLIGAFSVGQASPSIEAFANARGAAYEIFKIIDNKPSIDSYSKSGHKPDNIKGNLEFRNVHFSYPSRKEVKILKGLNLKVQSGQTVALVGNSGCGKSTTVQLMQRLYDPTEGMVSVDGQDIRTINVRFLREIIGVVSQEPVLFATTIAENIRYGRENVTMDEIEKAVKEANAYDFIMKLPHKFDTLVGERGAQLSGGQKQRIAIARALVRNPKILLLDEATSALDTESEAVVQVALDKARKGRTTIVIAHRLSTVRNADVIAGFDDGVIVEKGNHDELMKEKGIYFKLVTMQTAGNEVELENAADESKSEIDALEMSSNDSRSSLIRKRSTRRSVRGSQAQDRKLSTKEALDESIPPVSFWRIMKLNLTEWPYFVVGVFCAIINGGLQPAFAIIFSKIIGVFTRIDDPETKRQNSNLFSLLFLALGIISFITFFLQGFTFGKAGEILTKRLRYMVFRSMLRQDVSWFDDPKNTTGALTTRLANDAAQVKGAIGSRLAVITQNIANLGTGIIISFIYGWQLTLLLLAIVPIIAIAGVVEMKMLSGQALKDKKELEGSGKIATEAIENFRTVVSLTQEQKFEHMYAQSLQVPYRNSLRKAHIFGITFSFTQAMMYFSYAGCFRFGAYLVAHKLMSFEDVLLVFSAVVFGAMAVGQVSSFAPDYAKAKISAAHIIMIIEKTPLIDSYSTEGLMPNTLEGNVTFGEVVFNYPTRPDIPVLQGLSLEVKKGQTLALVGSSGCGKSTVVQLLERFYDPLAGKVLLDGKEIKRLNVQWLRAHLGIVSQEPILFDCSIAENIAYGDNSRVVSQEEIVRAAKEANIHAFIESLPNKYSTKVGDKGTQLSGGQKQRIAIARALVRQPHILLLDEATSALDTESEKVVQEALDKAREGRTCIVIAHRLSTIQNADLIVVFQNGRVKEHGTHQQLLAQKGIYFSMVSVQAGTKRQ

`NC(=O)C[Se]C(=O)c1ccccc1` was tested, and the Activity (L5178Y [1]) was 2.46%, the Activity (L5178Y [2]) was 0.081% and the IC50 (L5178Y [3]) was greater than 100 µM. The Ratio [4] was 1.02, the Activity (L5178Y [5]) was 2.24% and the Activity [6] was 3.72%. For the same compound, the IC50 (L5178Y [7]) was 36.4 µM, the Activity [8] was 3.04% and the Activity (L5178Y [9]) was 0.33%. It also gave an Activity (L5178Y [10]) of 2.91%, an Activity (L5178Y [11]) of 3.01% and a Ratio [12] of 1.05.
`O=C1[Se]C(=O)c2ccccc21` was tested, and the Activity (L5178Y [1]) was 31.5%, the “fold change (FC)” value [13] was 1.6 and the Activity (L5178Y [2]) was 0.767%. The IC50 (L5178Y [3]) was 3.97 µM, the Ratio [4] was 43.14 and the Activity (L5178Y [5]) was 53.9%. For the same compound, the Activity [6] was 356.2%, the “fold change (FC)” value [14] was 1.7 and the IC50 (L5178Y [7]) was 4.65 µM. It also gave an Activity [8] of 157.4%, an Activity (L5178Y [9]) of 0.47% and an Activity (L5178Y [10]) of 45%. The Activity (L5178Y [11]) was 32.2% and the Ratio [12] was 97.61.
Work on `COC(=O)C[Se]C(=O)c1ccc(Cl)cc1` yielded an Activity (L5178Y [1]) of 5.09%, an Activity (L5178Y [2]) of 0.497% and an IC50 (L5178Y [3]) greater than 100 µM. It also gave a Ratio [4] of 6.45, an Activity (L5178Y [5]) of 2.52% and an Activity [6] of 23.54%. The IC50 (L5178Y [7]) was 87.8 µM, the Activity [8] was 30.28% and the Activity (L5178Y [9]) was 0.03%. The Activity (L5178Y [10]) was 1.47%, the Activity (L5178Y [11]) was 2.69% and the Ratio [12] was 8.53.
Work on `O=C(C[Se]C(=O)c1ccccc1)Oc1ccccc1` yielded an Activity (L5178Y [1]) of 3%, an Activity (L5178Y [2]) of 0.24% and an IC50 (L5178Y [3]) greater than 100 µM. It also gave a Ratio [4] of 0.65, an Activity (L5178Y [5]) of 2.11% and an Activity [6] of 2.37%. It also gave an IC50 (L5178Y [7]) greater than 100 µM, an Activity [8] of 3.05% and an Activity (L5178Y [9]) of 0.16%. For the same compound, the Activity (L5178Y [10]) was 2.26%, the Activity (L5178Y [11]) was 3.9% and the Ratio [12] was 5.68.
With `CC(=O)C[Se]C(=O)c1ccc(Cl)cc1` the Activity (L5178Y [1]) was 30.8%, the “fold change (FC)” value [13] was 1.6 and the Activity (L5178Y [2]) was 0.874%. The IC50 (L5178Y [3]) was 0.78 µM, the Ratio [4] was 94.2 and the Activity (L5178Y [5]) was 52.7%. For the same compound, the Activity [6] was 308.91%, the “fold change (FC)” value [14] was 1.7 and the IC50 (L5178Y [7]) was 1.03 µM. For the same compound, the Activity [8] was 343.79%, the Activity (L5178Y [9]) was 7.66% and the Activity (L5178Y [10]) was 85.8%. The Activity (L5178Y [11]) was 3.86% and the Ratio [12] was 84.64.
`CC(C)(C)C(=O)C[Se]C(=O)c1ccc(Cl)cc1` gave an Activity (L5178Y [1]) of 36.1%, an Activity (L5178Y [2]) of 0.255% and an IC50 (L5178Y [3]) of 0.94 µM. The Ratio [4] was 9.28, the Activity (L5178Y [5]) was 56.1% and the Activity [6] was 177.63%. The “fold change (FC)” value [14] was 1.7, the IC50 (L5178Y [7]) was 0.43 µM and the Activity [8] was 33.87%. The Activity (L5178Y [9]) was 1.21%, the Activity (L5178Y [10]) was 21.9% and the Ratio (L5178Y [15]) was 2. It also gave an Activity (L5178Y [11]) of 15.9% and a Ratio [12] of 48.67.
`COc1cc(OC)cc(C(=O)[Se]CC(=O)C(C)(C)C)c1` was tested, and the Activity (L5178Y [1]) was 15.7%, the Activity (L5178Y [2]) was 0.167% and the IC50 (L5178Y [3]) was 1.31 µM. It also gave a Ratio [4] of 12.56, an Activity (L5178Y [5]) of 66.6% and an Activity [6] of 169.16%. For the same compound, the “fold change (FC)” value [14] was 1.7, the IC50 (L5178Y [7]) was 0.97 µM and the Activity [8] was 45.84%. The Activity (L5178Y [9]) was 0.51%, the Activity (L5178Y [10]) was 30.5% and the Ratio (L5178Y [15]) was 2. It also gave an Activity (L5178Y [11]) of 16.6% and a Ratio [12] of 46.35.
Work on `C[Se]C(=O)c1ccc(C(=O)[Se]C)cc1` yielded an Activity (L5178Y [1]) of 3.61%, an Activity (L5178Y [2]) of 0.11% and an IC50 (L5178Y [3]) greater than 100 µM. For the same compound, the Ratio [4] was 3.97, the Activity (L5178Y [5]) was 2.01% and the Activity [6] was 14.49%. It also gave an IC50 (L5178Y [7]) greater than 100 µM, an Activity [8] of 18.64% and an Activity (L5178Y [9]) of 0.37%. For the same compound, the Activity (L5178Y [10]) was 3.25%, the Activity (L5178Y [11]) was 3.01% and the Ratio [12] was 3.09.
Compound `C[Se]C(=O)c1cccc(C(=O)[Se]C)c1` has an Activity (L5178Y [1]) of 4.47%, an Activity (L5178Y [2]) of 0.076% and an IC50 (L5178Y [3]) greater than 100 µM. It also gave a Ratio [4] of 0.93, an Activity (L5178Y [5]) of 3.79% and an Activity [6] of 3.39%. The IC50 (L5178Y [7]) was greater than 100 µM, the Activity [8] was 2.78% and the Activity (L5178Y [9]) was 0.45%. The Activity (L5178Y [10]) was 2.8%, the Activity (L5178Y [11]) was 4.35% and the Ratio [12] was 0.98.
`C[Se]C(=O)c1cccc(C(=O)[Se]C)n1` showed an Activity (L5178Y [1]) of 5.97%, an Activity (L5178Y [2]) of 0.202% and an IC50 (L5178Y [3]) of 19.5 µM. For the same compound, the Ratio [4] was 1.13, the Activity (L5178Y [5]) was 7.18% and the Activity [6] was 5.44%. For the same compound, the IC50 (L5178Y [7]) was 16.9 µM, the Activity [8] was 3.98% and the Activity (L5178Y [9]) was 0.24%. The Activity (L5178Y [10]) was 3.28%, the Activity (L5178Y [11]) was 5.38% and the Ratio [12] was 1.49.
`C[Se]C(=O)c1ccc(C(=O)[Se]C)s1` showed an Activity (L5178Y [1]) of 6.64%, an Activity (L5178Y [2]) of 0.352% and an IC50 (L5178Y [3]) greater than 100 µM. The Ratio [4] was 0.99, the Activity (L5178Y [5]) was 6.93% and the Activity [6] was 3.19%. It also gave an IC50 (L5178Y [7]) greater than 100 µM, an Activity [8] of 3.61% and an Activity (L5178Y [9]) of 0.3%. For the same compound, the Activity (L5178Y [10]) was 2.34%, the Activity (L5178Y [11]) was 5.07% and the Ratio [12] was 1.07.
With `c1ccc2c(c1)Nc1c(ccc3ccccc13)S2` the Activity (L5178Y [16]) was 0.12%, the Activity (L5178Y [17]) was 51.2% and the Activity (L5178Y [18]) was 47.9%. The Activity (L5178Y [19]) was 5.58%, the Activity (L5178Y [20]) was 0.279% and the Activity (L5178Y [21]) was 45.7%.
Work on `CSc1ccc2c(c1)N(CCC1CCCCN1C)c1ccccc1S2` (stereo not drawn) [THIORIDAZINE] yielded an IC50 (L5178Y [3]) of 12.7 µM and an IC50 (L5178Y [7]) of 7.43 µM.
